# In US20130261130A1, “NEUROTRYPSIN INHIBITORS” (priority 2010, published 2013):
# pIC50: −log10 of the molar value.
# Molecular target: T1, human neurotrypsin (Homo sapiens, UniProt P56730)
# T1 sequence (P56730 21-875): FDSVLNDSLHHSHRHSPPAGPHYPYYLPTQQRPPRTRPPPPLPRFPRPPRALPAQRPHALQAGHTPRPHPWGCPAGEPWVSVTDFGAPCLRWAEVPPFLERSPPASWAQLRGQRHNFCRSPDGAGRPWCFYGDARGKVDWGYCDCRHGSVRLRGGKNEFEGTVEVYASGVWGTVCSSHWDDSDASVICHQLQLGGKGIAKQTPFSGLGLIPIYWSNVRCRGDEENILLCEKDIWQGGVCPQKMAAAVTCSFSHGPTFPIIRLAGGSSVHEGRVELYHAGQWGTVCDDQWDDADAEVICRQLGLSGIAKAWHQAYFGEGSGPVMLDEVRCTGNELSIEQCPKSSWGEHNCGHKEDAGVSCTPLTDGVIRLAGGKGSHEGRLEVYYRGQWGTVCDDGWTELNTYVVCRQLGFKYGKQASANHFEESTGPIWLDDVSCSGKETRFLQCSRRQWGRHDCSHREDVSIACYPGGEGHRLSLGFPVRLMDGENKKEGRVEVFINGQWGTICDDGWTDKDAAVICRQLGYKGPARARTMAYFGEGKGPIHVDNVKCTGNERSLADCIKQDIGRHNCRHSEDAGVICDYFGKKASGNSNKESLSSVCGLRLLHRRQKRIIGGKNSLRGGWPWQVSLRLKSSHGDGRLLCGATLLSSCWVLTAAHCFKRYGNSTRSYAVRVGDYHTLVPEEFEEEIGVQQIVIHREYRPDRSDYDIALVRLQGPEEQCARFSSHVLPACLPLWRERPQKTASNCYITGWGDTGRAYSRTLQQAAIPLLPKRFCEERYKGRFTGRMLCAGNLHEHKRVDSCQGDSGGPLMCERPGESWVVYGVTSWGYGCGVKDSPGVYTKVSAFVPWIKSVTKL
# Assay: Determination of IC50 for human neurotrypsin
# Type: biochemical
# Settings: human neurotrypsin; method of WO 2006/1103261; read-out: Neurotrypsin IC50
# Procedure: Assessment of the potency of compounds of examples 1-311 in inhibiting the enzymatic activity of human neurotrypsin was performed according to the method described in patent application WO 2006/1103261
row,Structure (SMILES),pIC50
1,"O=C(Nc1ccccn1)c1ccc(C(=O)O)c(NC(=O)c2sc3ccccc3c2Cl)c1 [Example 149, 2-(3-Chloro-benzo[b]-thiophene-2-carboxamido)-4-(pyridin-2-ylcarbamoyl)-benzoic acid]",4.78
2,"CCOC(=O)CN(C(=O)c1ccc(C(=O)O)c(NC(=O)c2sc3ccccc3c2Cl)c1)c1ccc(Cl)cc1 [Example 156, 2-(3-Chlorobenzo[b]-thiophene-2-carboxamido)-4-(N-(4-chlorophenyl)-N-(ethoxycarbonylmethyl)-carbamoyl)benzoic acid]",5.33
3,"O=C(NC1Cc2ccccc2C1)c1ccc(NC(=O)c2sc3ccccc3c2Cl)c(C(=O)O)c1 [Example 159, 2-(3-Chlorobenzo[b]-thiophene-2-carboxamido)-5-(indan-2-ylcarbamoyl)benzoic acid]",5.19
4,"O=C(NCc1c(F)cccc1F)c1ccc(NC(=O)c2cc3ccc(Cl)cc3s2)c(C(=O)O)c1 [Example 165, 2-(6-Chlorobenzo[b]-thiophene-2-carboxamido)-5-(2,6-difluorobenzyl-carbamoyl)benzoic acid]",5.05
5,"O=C(O)c1ccc(C(=O)Nc2ccc(Cl)cc2)c(NC(=O)c2sc3ccccc3c2Cl)c1 [Example 188, 3-(3-Chlorobenzo[b]-thiophene-2-carboxamido)-4-(4-chlorophenylcarbamoyl)-benzoic acid]",5.17
6,"O=C(O)c1ccc(C(=O)Nc2ccc(Cc3ccccc3)cc2)c(NC(=O)c2sccc2Cl)c1 [Example 196, 4-(4-Benzylphenyl-carbamoyl)-3-(3-chloro-thiophene-2-carboxamido)-benzoic acid]",4.99
7,"O=C(O)c1ccc(NC(=O)c2ccc(Cl)s2)c(C(=O)Nc2ccc(Cl)cc2)c1 [Example 218, 3-(4-Chlorophenyl-carbamoyl)-4-(5-chloro-thiophene-2-carboxamido)-benzoic acid]",4.39
8,O=C(O)c1ccc(/C=C/Cc2ccccc2)cc1NC(=O)c1sc2ccccc2c1Cl [Example 246],4.01
9,O=C(O)c1ccc(C#Cc2ccc(Cl)cc2)cc1NC(=O)c1sc2ccccc2c1Cl [Example 248],< 3.82
10,O=C(O)c1ccc(-c2cn(Cc3ccccc3)nn2)cc1NC(=O)c1sc2ccccc2c1Cl [Example 258],5.03
11,O=C(O)c1ccc(-c2cn(Cc3c(F)cccc3F)nn2)cc1NC(=O)c1sc2ccccc2c1Cl [Example 260],4.96
12,O=C(O)c1ccc(-c2cn(-c3ccc(Cl)c(C(F)(F)F)c3)nn2)cc1NC(=O)c1sc2ccccc2c1Cl [Example 261],5.26
13,O=C(O)c1ccc(-c2cn(Cc3ccc(Cl)s3)nn2)cc1NC(=O)c1sc2ccccc2c1Cl [Example 262],5.15
14,"O=C(O)c1cc(NC(=O)c2sc3ccccc3c2Cl)ccc1C(=O)Nc1ccc(Cl)cc1 [Example 270, 5-(3-Chlorobenzo[b]thiophene-2-carboxamido)-2-(4-chlorophenyl-carbamoyl)benzoic acid]",4.64
15,O=C(O)c1cc(NC(=O)c2sc3ccccc3c2Cl)ccc1C(=O)Nc1ccc(Cl)cc1 [Example 271],4.85
16,O=C(Nc1ccc(C(=O)O)c(NC(=O)c2sc3ccccc3c2Cl)c1)c1ccc(Cl)cc1 [Example 273],5.12
17,O=C(Nc1ccc(C(=O)O)c(NC(=O)c2sc3ccccc3c2Cl)c1)c1ccc(Cl)s1 [Example 274],5.18
18,O=C(Nc1ccc(Cl)cc1)Nc1ccc(C(=O)O)c(NC(=O)c2sc3ccccc3c2Cl)c1 [Example 276],5.20
19,O=C(O)c1ccc(NS(=O)(=O)c2ccc(Cl)cc2)cc1NC(=O)c1sc2ccccc2c1Cl [Example 278],4.71
20,O=C(O)c1ccc(NC(=O)N2CCC(c3ccccc3)CC2)cc1NC(=O)c1sc2ccccc2c1Cl [Example 279],5.27
21,"O=C(O)c1ccc(NCc2ccc(Cl)cc2)cc1NC(=O)c1sc2ccccc2c1Cl [Example 280, 2-(3-Chlorobenzo[b]thiophene-2-carboxamido)-4-(4-chlorobenzylamino)-benzoic acid]",5.30
22,O=C(O)c1ccc(N2CC(c3ccc(Cl)cc3)CC2=O)cc1NC(=O)c1sc2ccccc2c1Cl (centres unmarked) [Example 282],4.95
23,O=C(O)c1ccc(N2CC(c3ccc(Cl)cc3)CCC2=O)cc1NC(=O)c1sc2ccccc2c1Cl (centres unmarked) [Example 286],4.98

# These reach a higher pIC50. Values come first.
row,pIC50,Structure (SMILES)
1,5.37,"O=C(NCc1ccc(Cl)cc1)c1ccc(C(=O)O)c(NC(=O)c2sc3ccccc3c2Cl)c1 [Example 148, 2-(3-Chloro-benzo[b]-thiophene-2-carboxamido)-4-(4-chlorobenzylcarbamoyl)-benzoic acid]"
2,5.57,"O=C(O)c1ccc(C(=O)N2CCC(O)(c3ccc(Cl)c(C(F)(F)F)c3)CC2)cc1NC(=O)c1sc2ccccc2c1Cl [Example 151, 4-(4-(4-Chloro-3-(trifluoro-methyl)phenyl)-4-hydroxy-piperidine-1-carbonyl)-2-(3-chlorobenzo[b]thiophene-2-carboxamido)benzoic acid]"
3,5.42,"O=C(O)c1cc(C(=O)N2CCC(Cc3ccccc3)CC2)ccc1NC(=O)c1sc2ccccc2c1Cl [Example 157, 5-(4-Benzylpiperidine-1-carbonyl)-2-(3-chlorobenzo[b]thiophene-2-carboxamido)benzoic acid]"
4,5.42,"O=C(Nc1ccc(C(=O)N2CCC(Cc3ccccc3)CC2)cc1C(=O)O)c1cc2ccc(Cl)cc2s1 [Example 158, 5-(4-Benzylpiperidine-1-carbonyl)-2-(6-chloro-benzo[b]thiophene-2-carboxamido)benzoic acid]"
5,5.41,"O=C(Nc1ccc(C(=O)N2CCC(Oc3ccccc3)CC2)cc1C(=O)O)c1cc2ccc(Cl)cc2s1 [Example 160, 2-(6-Chlorobenzo[b]thiophene-2-carboxamido)-5-(4-phenoxypiperidine-1-carbonyl)benzoic acid]"
6,5.52,"O=C(Nc1ccc(C(=O)N2CCC(Cc3ccccc3)CC2)cc1C(=O)O)c1ccc(-c2ccc(Cl)cc2)s1 [Example 161, 5-(4-Benzylpiperidine-1-carbonyl)-2-(5-(4-chloro-phenyl)thiophene-2-carboxamido)benzoic acid]"
7,5.35,"O=C(Nc1ccc(C(=O)N2CCC(Oc3ccccc3)CC2)cc1C(=O)O)c1ccc(-c2ccc(Cl)cc2)s1 [Example 162, 2-(5-(4-Chlorophenyl)-thiophene-2-carboxamido)-5-(4-phenoxypiperidine-1-carbonyl)benzoic acid]"
8,5.59,"O=C(Nc1ccc(C(=O)N2CCC(c3ccccc3)CC2)cc1C(=O)O)c1cc2ccc(Cl)cc2s1 [Example 163, 2-(6-Chlorobenzo[b]-thiophene-2-carboxamido)-5-(4-phenylpiperidine-1-carbonyl)benzoic acid]"
9,5.46,"O=C(Nc1ccc(C(=O)N2CCC(Cc3ccc(Cl)cc3)CC2)cc1C(=O)O)c1cc2ccc(Cl)cc2s1 [Example 164, 2-(6-Chlorobenzo[b]-thiophene-2-carboxamido)-5-(4-(4-chlorobenzyl)piperidine-1-carbonyl)benzoic acid]"
10,5.43,"O=C(Nc1ccc(Cl)cc1)c1ccc(-c2nn[nH]n2)c(NC(=O)c2sc3ccccc3c2Cl)c1 [Example 229, 3-Chloro-benzo[b]thiophene-2-carboxylic acid [5-(4-chloro-phenyl-carbamoyl)-2-(2H-tetrazol-5-yl)phenyl]amide]"
11,5.55,COc1ccc(-c2ccc(C(=O)O)c(NC(=O)c3sc4ccccc4c3Cl)c2)cc1 [Example 249]
12,5.62,O=C(O)c1ccc(-c2ccccc2Cl)cc1NC(=O)c1sc2ccccc2c1Cl [Example 250]
13,5.51,N#Cc1ccc(-c2ccc(C(=O)O)c(NC(=O)c3sc4ccccc4c3Cl)c2)cc1 [Example 255]
14,5.42,"O=C(O)c1ccc(-c2cn(-c3ccc(Cl)cc3)nn2)cc1NC(=O)c1sc2ccccc2c1Cl [Example 257, 2-(3-Chlorobenzo[b]thiophene-2-carboxamido)-4-(1-(4-chlorophenyl)-1H-1,2,3-triazol-4-yl)benzoic acid]"
15,5.40,O=C(O)c1cc(-c2cn(-c3ccc(Cl)cc3)nn2)ccc1NC(=O)c1sc2ccccc2c1Cl [Example 263]
16,5.43,COc1ccc(-c2ccc(C(=O)O)c(NC(=O)c3ccc(-c4nc5cc(Cl)c(Cl)cc5[nH]4)cc3)c2)cc1 [Example 266]
17,6.30,N#Cc1ccc(-c2ccc(C(=O)O)c(NC(=O)c3ccc(-c4nc5cc(Cl)c(Cl)cc5[nH]4)cc3)c2)cc1 [Example 267]
18,5.52,O=C(Nc1ccc(C(=O)O)c(NC(=O)c2ccc(-c3ccccc3)s2)c1)c1ccc(Cl)s1 [Example 275]
19,5.46,O=C(Nc1cc(NC(=O)c2sc3ccccc3c2Cl)ccc1C(=O)O)c1ccc(Cl)cc1 [Example 277]
20,5.47,O=C(Nc1cc(N2CC(c3ccc(Cl)cc3)CC2=O)ccc1C(=O)O)c1ccc(-c2ccc(Cl)cc2)s1 (centres unmarked) [Example 283]
21,5.37,O=C(O)c1cc(N2CC(c3ccc(Cl)cc3)CC2=O)ccc1NC(=O)c1sc2ccccc2c1Cl (centres unmarked) [Example 287]
